The text below walks through data of ChEMBL document CHEMBL1201862, “PubChem BioAssay data set” (2004).

Common to all, as to experiment: DTP human tumour cell line panel, 48 h
The test system of experiment [1] is 786-0.
Experiment [2] has as its system A549.
Experiment [3] concerns ACHN.
The test system of experiment [4] is DU-145.
Experiment [5] concerns HCT-15.
Experiment [6] deals with M14.
Experiment [7] concerns MCF7.
For experiment [8], the system named is Malme-3M.
Experiment [9] relates to NCI-H23.
Experiment [10] concerns NCI/ADR-RES.
Experiment [11] relates to OVCAR-5.
Experiment [12] concerns OVCAR-8.
Experiment [13] concerns SF-539.
Experiment [14] has as its system SK-MEL-28.
In experiment [15] the test system is SK-OV-3.
Experiment [16] concerns T47D.
Experiment [17] concerns U-251.
The subject of experiment [18] is UACC-62.
Experiment [19] concerns K562.
Experiment [20] relates to OVCAR-3.

Molecules are shown by their SMILES.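 Test compounds were applied to cells in 96-well plates for 48 hours at 5 doses. GI50: concentration for 50% inhibition of growth.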 Active and inactive are the calls of the source. No stated cut-off is given here; in the data, active = GI50 up to about 1.1 µM and inactive = higher.

As to `CCOC(=O)C1(C/C=C\CBr)CCCC1=O` (centres undefined), the GI50 was 32.3 µM (inactive) in [1]; 30.6 µM (inactive) in [2]; 20.4 µM (inactive) in experiment [3]; 27.5 µM (inactive) in experiment [4]; 26.9 µM in experiment [5]; 21.7 µM (inactive) in experiment [6]. Further, the GI50 is 11.5 µM (inactive) in experiment [7]; 48.1 µM (inactive) in experiment [8]; 23.8 µM (inactive) in experiment [9]; 25.5 µM (inactive) in experiment [10]; 31.2 µM (inactive) in experiment [11]; 30.1 µM (inactive) in experiment [12]. The GI50 in experiment [13] was 24.6 µM (inactive); in [14] it was 47.3 µM (inactive); in experiment [15] it was 83.9 µM (inactive); in experiment [16], 30.5 µM (inactive); in experiment [17], 20.1 µM (inactive); in experiment [18], 15.7 µM (inactive).

`CCn1cc2c(=O)n3ncn(-c4ccc(Br)cc4)c3nc2n1`: the GI50 in experiment [1] was 63.2 µM (inactive); in experiment [2], > 100 µM (inactive); in experiment [3], > 100 µM (inactive); in [4], > 100 µM (inactive); in experiment [5], 93.8 µM; in experiment [19], > 100 µM (inactive). Also, the GI50 in [6], in experiment [7], in experiment [8], in experiment [9], in [10] and in experiment [20] was > 100 µM (inactive) each time. Further, the GI50 is > 100 µM (inactive) in experiment [11]; 78.9 µM (inactive) in experiment [12]; > 100 µM (inactive) in [14]; > 100 µM (inactive) in [15]; > 100 µM (inactive) in [16]; 58.1 µM (inactive) in experiment [17]. In experiment [18], the GI50 is > 100 µM (inactive).

For the compound `N=C(N)N1CCC(N2CCOCC2)CC1`, the GI50 in [1] was > 100 µM (inactive); in experiment [2] it was > 100 µM (inactive); in [3] it was > 100 µM (inactive); in experiment [4], > 100 µM (inactive); in [5], more than 100 µM; in experiment [19] it was > 100 µM (inactive). Also, the GI50 in [6], in [7], in [8], in [9], in experiment [10] and in experiment [11] was > 100 µM (inactive) each time. Further, the GI50 in experiment [12], in experiment [13], in [14], in experiment [15], in [16] and in experiment [17] was > 100 µM (inactive) throughout. The GI50 in experiment [18] is > 100 µM (inactive).

Regarding `O=C1CC(O)c2c(Cl)sc(Cl)c21` (centres undefined), the GI50 in [1] was 4.14 µM (inactive); in experiment [2], 16.4 µM (inactive); in experiment [3], 12.2 µM (inactive); in experiment [4], 12.9 µM (inactive); in [5] it was 3.39 µM; in experiment [19], 3.37 µM (inactive). The GI50 in experiment [6] was 14.2 µM (inactive); in experiment [7], 5.45 µM (inactive); in experiment [9], 15.3 µM (inactive); in experiment [10] it was 22.9 µM (inactive); in [20] it was 5.4 µM (inactive); in experiment [11] it was 17 µM (inactive). The GI50 was 4.07 µM (inactive) in [12]; 9.04 µM (inactive) in experiment [13]; 6.46 µM (inactive) in experiment [14]; 22.5 µM (inactive) in experiment [15]; 5.89 µM (inactive) in experiment [16]; 13.9 µM (inactive) in experiment [17]. Moreover, in experiment [18], the GI50 is 14.7 µM (inactive).

For the compound `N#CCCC1C(C#N)C2CC1C1C3C=CC(C3)C21` (centres undefined), the GI50 in experiment [1] is > 100 µM (inactive); in experiment [2] it was > 100 µM (inactive); in [3], > 100 µM (inactive); in [4], > 100 µM (inactive); in [5], more than 100 µM; in [19], > 100 µM (inactive). The GI50 in [6], in experiment [7], in experiment [8], in [9], in [10] and in experiment [20] was > 100 µM (inactive) each time. Moreover, the GI50 in experiment [11], in [12], in experiment [14], in experiment [15], in [16] and in experiment [18] was > 100 µM (inactive) each time.

Take `Cc1cc(S(=O)(=O)Nc2nc(N)nc(N(C)C)n2)c(SC(C(=O)O)c2ccccc2)cc1Cl` (centres undefined): the GI50 is > 10 µM (inactive) in experiment [1]; > 10 µM (inactive) in experiment [2]; > 10 µM (inactive) in experiment [3]; > 10 µM (inactive) in [4]; more than 10 µM in experiment [5]; > 10 µM (inactive) in experiment [19]. In addition, the GI50 in [6], in experiment [7], in experiment [8], in [9], in [10] and in [20] was > 10 µM (inactive) in each case. Further, the GI50 in experiment [11], in experiment [12], in experiment [13], in experiment [14], in experiment [15] and in experiment [16] was > 10 µM (inactive) throughout. In addition, in [17], the GI50 is > 10 µM (inactive).

With `COc1cccc2c1OC(c1cccc3ccccc13)C([N+](=O)[O-])=C2` (centres undefined), the GI50 in experiment [1] is 1.87 µM (inactive); in experiment [2], 1.95 µM (inactive); in experiment [3], 1.6 µM (inactive); in experiment [4], 2.65 µM (inactive); in [5], 1.55 µM; in experiment [19] it was 0.685 µM (active). Besides, the GI50 in experiment [6] was 1.31 µM (inactive); in [7], 0.728 µM (active); in experiment [8] it was 1.75 µM (inactive); in experiment [9] it was 1.84 µM (inactive); in [10], 1.71 µM (inactive); in [20], 1.34 µM (inactive). In addition, the GI50 is 1.82 µM (inactive) in experiment [11]; 4.24 µM (inactive) in experiment [12]; 1.53 µM (inactive) in experiment [14]; 3.11 µM (inactive) in [15]; 2.22 µM (inactive) in experiment [16]; 1.56 µM (inactive) in experiment [17]. Also, the GI50 in experiment [18] was 1.08 µM (active).

With `COc1ccc(OC)c(-c2cn3c(n2)sc2ccccc23)c1`, the GI50 is 58.5 µM (inactive) in experiment [1]; > 100 µM (inactive) in experiment [2]; > 100 µM (inactive) in experiment [3]; > 100 µM (inactive) in experiment [4]; more than 100 µM in experiment [5]; > 100 µM (inactive) in experiment [19]. Also, the GI50 in experiment [7] is 3.44 µM (inactive); in experiment [8] it was > 100 µM (inactive); in [9], > 100 µM (inactive); in experiment [10], > 100 µM (inactive); in experiment [20], > 100 µM (inactive); in experiment [11], > 100 µM (inactive). For the same compound, the GI50 in experiment [12] was 94.8 µM (inactive); in experiment [13] it was > 100 µM (inactive); in experiment [15], > 100 µM (inactive); in experiment [16], > 100 µM (inactive); in experiment [17], > 100 µM (inactive); in [18], 64.1 µM (inactive).

In the case of `O=c1onc2n1-c1cc(Cl)ccc1C(=S)N1CSCC21` (centres undefined), the GI50 in experiment [1] was > 100 µM (inactive); in experiment [2], > 100 µM (inactive); in experiment [3], > 100 µM (inactive); in [4], > 100 µM (inactive); in experiment [5], more than 100 µM; in [19] it was 26.7 µM (inactive). Also, the GI50 in [6], in experiment [7], in experiment [8], in [10], in experiment [20] and in experiment [11] was > 100 µM (inactive) in each case. In addition, the GI50 in experiment [12], in experiment [14], in [15], in experiment [16], in experiment [17] and in experiment [18] was > 100 µM (inactive) throughout.

Turning to `CC(=N\N)/C(C)=N/N=C(C)/C(C)=N/N=C(C)/C(C)=N/N=C(C)/C(C)=N/N`, the GI50 was > 100 µM (inactive) in experiment [1]; > 100 µM (inactive) in [2]; > 100 µM (inactive) in [4]; more than 100 µM in [5]; 37.8 µM (inactive) in experiment [19]; > 100 µM (inactive) in [6]. The GI50 was > 100 µM (inactive) in [7]; > 100 µM (inactive) in experiment [8]; 66.8 µM (inactive) in experiment [9]; > 100 µM (inactive) in experiment [10]; > 100 µM (inactive) in [20]; > 100 µM (inactive) in experiment [11]. Besides, the GI50 in experiment [12], in [13], in [14], in [15], in experiment [16] and in experiment [17] was > 100 µM (inactive) each time.

Turning to `COc1c2c(cc3occ(-c4ccc(CC=C(C)C)cc4)c(=O)c13)OC(C)(C)C=C2`, the GI50 is 84.1 µM (inactive) in experiment [1]; 30.1 µM (inactive) in [2]; 77.6 µM (inactive) in experiment [3]; 84.7 µM (inactive) in experiment [4]; 45.9 µM in experiment [5]; 10.6 µM (inactive) in experiment [19]. Further, the GI50 is 34.3 µM (inactive) in experiment [6]; 31 µM (inactive) in experiment [7]; 60.5 µM (inactive) in [8]; 25.8 µM (inactive) in experiment [9]; 18.2 µM (inactive) in experiment [10]; 10.3 µM (inactive) in experiment [20]. Moreover, the GI50 in experiment [11] was > 100 µM (inactive); in experiment [12] it was 48.4 µM (inactive); in experiment [14], > 100 µM (inactive); in experiment [15], > 100 µM (inactive); in [16] it was 16.5 µM (inactive); in experiment [17], 33.7 µM (inactive). Besides, the GI50 in [18] is > 100 µM (inactive).

The term GI50 denotes the concentration giving 50% growth inhibition.
